Assay results taken from PubChem BioAssay (NCI).
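Grown in 96-well plates, cells were treated for 48 hours with each compound at five concentrations. Insufficient inhibition: endpoint recorded as highest concentration tested. TGI: concentration producing complete growth inhibition.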

Columns and labels:
Assay in all cases: NCI tumour cell line growth inhibition, 48 h
ACHN renal = test system: ACHN renal
IGROV1 ovarian = test system: IGROV1 ovarian
HCT-15 colon = test system: HCT-15 colon
RPMI-8226 leukemia = test system: RPMI-8226 leukemia
MOLT-4 leukemia = test system: MOLT-4 leukemia
COLO 205 colon = test system: COLO 205 colon
SR leukemia = test system: SR leukemia
HOP-92 NSCLC = test system: HOP-92 NSCLC
SK-MEL-5 melanoma = test system: SK-MEL-5 melanoma
NCI-H23 lung = test system: NCI-H23 lung
HT29 colon = test system: HT29 colon
T-47D breast = test system: T-47D breast
U251 CNS = test system: U251 CNS
MDA-MB-231 breast = test system: MDA-MB-231 breast
SK-OV-3 ovarian = test system: SK-OV-3 ovarian
HL-60(TB) leukemia = test system: HL-60(TB) leukemia
SNB-75 CNS = test system: SNB-75 CNS
UO-31 renal = test system: UO-31 renal
A498 renal = test system: A498 renal

Structure (SMILES)	TGI (ACHN renal) [µM]	TGI (IGROV1 ovarian) [µM]	TGI (HCT-15 colon) [µM]	TGI (RPMI-8226 leukemia) [µM]	TGI (MOLT-4 leukemia) [µM]	TGI (COLO 205 colon) [µM]	TGI (SR leukemia) [µM]	TGI (HOP-92 NSCLC) [µM]	TGI (SK-MEL-5 melanoma) [µM]	TGI (NCI-H23 lung) [µM]	TGI (HT29 colon) [µM]	TGI (T-47D breast) [µM]	TGI (U251 CNS) [µM]	TGI (MDA-MB-231 breast) [µM]	TGI (SK-OV-3 ovarian) [µM]	TGI (HL-60(TB) leukemia) [µM]	TGI (SNB-75 CNS) [µM]	TGI (UO-31 renal) [µM]	TGI (A498 renal) [µM]
Cc1ccc2nc(N/N=C/c3ccc(C)s3)cc(C)c2c1	24.1	23.6	15.3	56.6	53.4	12.2	> 100	21	20.4	22	12.4	41.9	27.6	31.8	32.7	–	–	–	–
CC1C(=NO)C(C)C(c2ccccc2)N(N=O)C1c1ccccc1 (stereo not given)	45.7	52.9	31.9	–	44.6	31.5	45.7	49.3	33.1	77.1	33.8	38.9	35.4	32.9	22.7	88.6	82	39.1	–
COc1ccc2oc(=Nc3ccccc3)c(C(N)=O)cc2c1	42	> 100	> 100	> 100	> 100	> 100	> 100	> 100	> 100	> 100	> 100	> 100	> 100	> 100	> 70.2	> 100	> 100	> 55.6	–
c1ccc(N=C(N2CCOCC2)N(CCN2CCOCC2)c2ccccc2)cc1	–	> 100	> 100	> 100	> 100	> 100	> 100	–	> 100	> 100	> 100	> 100	> 100	> 100	> 100	–	> 100	> 100	–
CC(C)(C)OC(=O)[C@@H]1CCC(=S)N1Cc1ccccc1	> 100	> 100	> 100	> 100	> 100	> 100	> 100	> 100	> 100	> 100	–	–	> 100	> 100	> 100	–	> 100	> 100	> 100
COc1cc(C2SCC(=O)N2Cc2ccccc2)cc(OC)c1OC (stereo not given)	> 100	> 100	> 100	> 100	> 100	> 100	> 100	71.8	> 100	> 100	> 100	–	> 100	> 100	> 100	> 100	–	> 100	–
Cc1c(-c2ccccc2)[nH]c2ccc(Cl)cc2c1=O	> 100	> 100	> 100	> 100	> 100	> 100	> 100	52	56.3	> 100	> 100	> 100	57.5	96	87.6	> 100	95.2	0.507	–
